Like-named read-outs stand apart in the source and are kept apart here.
Key:
[1] = Example 3: serial 68Ga-MIP-1558 PET of the salivary region with saline or PMPA; assay type: in vivo; details: rats, PMPA 10 mg/kg
Procedure: (§1) MIP-1558 was evaluated after labeling with ^68Ga and imaging in an animal PET. […] Both tumor and kidney uptake was determined in a volume of interest (VOI).

LNCaP tumor = experiment: Example 3: 68Ga-MIP-1558 animal PET, PMPA after 1 hour baseline scan; assay type: in vivo, BALB/c nude mice; details: for kidney uptake SUVmax of 68Ga-MIP1558: PMPA 50 mg/kg; for mean tumor uptake SUVmax of 68Ga-MIP1558: after PMPA 50 mg/kg
Procedure: as §1

LNCaP tumors = experiment: Example 1: planar scintigraphy of 125I-MIP-1095, PMPA injected 16 hours later; assay type: in vivo, BALB/c nude mice
Procedure: Mice bearing LNCaP tumors of 1.5 cm diameter were injected via the tail vein with 37 MBq of ^125I-MIP-1095 in 100 μl at a specific activity of >1,000 mCi/[…]. Mice were imaged at a baseline time of 16 hours post injection giving enough time for tracer clearance from the blood stream and kidney calices.

PSMA = details: simultaneous coinjection of 50 mg/kg PMPA; cited from earlier work
[2] = PET-based dosimetry; cited from earlier work
[3] = doses of up to 750 mg (~10 mg/kg), 25 healthy subjects, mean body weight 71 kg; cited from earlier work
[4] = group 2, PMPA 0.5 mg/kg IV 16 hours post tracer
[5] = groups 3, 4 and 5, 0.05, 0.15 and 0.5 mg/kg

Procedure for LNCaP xenografts: Blood and tissues were collected 18 hours after intravenous injection of ^125I-MIP-1095 (2 hours after displacing agent injections). Gamma-counter readouts were obtained for each sample and expressed as percent injected dose per gram of tissue using gamma-counter readout of the dosing solution as a reference.
The dosing solution was prepared fresh the day of administration.
Cold MIP-1095 was stored protected from light at −80° C. until use. The compound was formulated in a vehicle of sterile saline. For dosing of the 0.50 mg/kg group, the cold MIP-1095 was placed into a sterile vial and the appropriate amount of saline was added and mixed well by vortexing to form a clear solution with a pH value of 6.96. Dosing solutions for the 0.15 mg/kg and 0.05 mg/kg groups were prepared by direct (not serial) dilution of the dosing solution from the 0.5 mg/kg group with complete vehicle. The dosing solutions were prepared fresh the day of administration.
For dosing, the stock solution (colorless) was thawed in a 37° C. water bath and diluted 1:1 with sterile saline for a fixed 0.1 mCi/ml solution for dosing.
The pre-implantation cell viability was 97%. […] The cell suspension was maintained on wet ice during implantation. Following implantation, an aliquot of the remaining cells was diluted with a trypan blue solution and counted to determine the post-implantation cell viability (96%).
Test animals were implanted subcutaneously, high in the axilla (just under the fore limb) on Day 0 with 5.0E+06 cells in 0.2 ml of 50% serum-free medium:50% Matrigel® using a 27-gauge needle and syringe.
All mice were sorted into study groups based on caliper measurement estimation of tumor burden. The mice were distributed to ensure that the mean tumor burden for all groups was within 10% of the overall mean tumor burden for the study population. Treatment began on Day 25. Mice were administered test agent via intravenous injections. The mice were administered a fixed volume injection of 100 μl (approximately 4 ml/kg) via the tail vein, using a 28-gauge needle and insulin syringe. A fresh needle and syringe was used for each mouse.
Group 1—^125I-MIP-1095+Saline, 0.4 mCi/kg (0.005 mg/kg)+100 μl fixed volume, IV+IV, “Control”; test article at 0 hours, saline 16 hours post test article.

O=C(O)CCC(CP(=O)(O)O)C(=O)O (stereo not drawn) [PMPA, 2-(phosphonomethyl)pentanedioic acid]
difference in MIP-1404 tumor uptake vs controls (LNCaP; PMPA 50 mg/kg): not significant
washout of MIP-1404 from kidney vs controls (LNCaP; PMPA 50 mg/kg after baseline scan, at 2 and 4 hours): significantly (p<0.01) enhanced
exposure of 125I-MIP-1095 in LNCaP tumors and all other organs and tissues (LNCaP xenografts; [4]): little changed
exposure of 125I-MIP-1095 in the kidneys (LNCaP xenografts; [4]): greatly reduced
change of salivary region uptake due to the PMPA intervention [1]: there does not appear to be a measurable change
salivary region SUVmax of 68Ga-MIP-1558, mean ([1]; 1 hour post injection): 0.82
salivary region SUVmax of 68Ga-MIP-1558, mean ([1]; 3 hours post injection): 0.23
kidney uptake SUVmax of 68Ga-MIP1558 (LNCaP tumor; 2 hours post injection): 1.87
kidney uptake SUVmax of 68Ga-MIP1558 (LNCaP tumor; 3 hours post injection): 1.77
mean tumor uptake SUVmax of 68Ga-MIP1558 (LNCaP tumor; 2 hours post injection): 0.40
mean tumor uptake SUVmax of 68Ga-MIP1558 (LNCaP tumor; 3 hours post injection): 0.39
residual tumor uptake of 125I-MIP-1095, % of 16 hour baseline (LNCaP tumors; 2 hours after PMPA 0.2 mg/kg): 98%
residual tumor uptake of 125I-MIP-1095, % of 16 hour baseline (LNCaP tumors; 2 hours after PMPA 1 mg/kg): 93%
residual tumor uptake of 125I-MIP-1095, % of 16 hour baseline (LNCaP tumors; 2 hours after PMPA 10 mg/kg): 77%
residual tumor uptake of 125I-MIP-1095, % of 16 hour baseline (LNCaP tumors; 2 hours after PMPA 50 mg/kg): 75%
decrease in tumor uptake (LNCaP tumors; PMPA 0.2 mg/kg): < 5%
renal displacement of tracer (LNCaP tumors; PMPA 0.2 mg/kg (lower dose)): only sub-totally displaced
displacement of 125I-MIP-1095 from the kidneys (LNCaP tumors; PMPA 0.2 mg/kg, 16 hours after tracer): high significant (p<0.01) displacement
effect on tumor uptake (LNCaP tumors; PMPA 1.0 mg/kg): < 10%
renal displacement of tracer (LNCaP tumors; PMPA 1.0 mg/kg): near total renal displacement
kidney washout of 125I-MIP-1095 vs 0.2 mg/kg dose (LNCaP tumors; PMPA 1 mg/kg, p<0.01): even higher kidney washout
displacement of renal activity of 125I-MIP-1095 (LNCaP tumors; PMPA 16 hours after MIP-1095, all PMPA doses (0.2-50 mg/kg)): rapid and quantitative relevant displacement
kidney-protective effect vs 1 mg/kg (LNCaP tumors; PMPA doses greater than 1 mg/kg (10, 50 mg/kg)): did not improve the kidney-protective effect
blocking of radiolabeled MIP-1095 binding sites in tumor and kidneys (PSMA): complete blocking
residual kidney uptake of MIP-1404, % of baseline (PMPA 1 mg/kg, 2 hours): 13%
residual kidney uptake of MIP-1404, % of baseline (PMPA 1 mg/kg, 4 hours): 9%
residual kidney uptake of MIP-1404, % of baseline (PMPA 10 mg/kg, 2 hours): 15%
residual kidney uptake of MIP-1404, % of baseline (PMPA 10 mg/kg, 4 hours): 10%
residual kidney uptake of MIP-1404, % of baseline (PMPA 50 mg/kg, 2 hours): 11%
residual kidney uptake of MIP-1404, % of baseline (PMPA 50 mg/kg, 4 hours): 7%

O=C(O)CC[C@H](NC(=O)N[C@@H](CCCCNC(=O)Nc1ccc([123I])cc1)C(=O)O)C(=O)O [125I-MIP-1095]
exposure in all other tissues and organs (including salivary glands) (LNCaP xenografts; male, Taconic Nude (CrTac:NCr-Foxn1nu), mouse, in vivo, 18 h): less than 1 % of ID/g
exposure in LNCaP tumors relative to other tissues (LNCaP xenografts; mouse, in vivo, iv): highest exposure

O=C(O)CC[C@H](NC(=O)N[C@@H](CCCCNC(=O)Nc1ccc([123I])cc1)C(=O)O)C(=O)O [124I-MIP1095]
off-target radiation dose, kidneys [2]: 1.4 mSv/MBq
off-target radiation dose, liver [2]: 1.7 mSv/MBq
off-target radiation dose, salivary glands [2]: 3.8 mSv/MBq
radiation dose, red marrow [2]: 0.37 mSv/MBq

O=C(O)CCC(CCCS)C(=O)O (stereo not drawn) [2-MPPA, 2-(3-mercaptopropyl)pentanedioic acid]
safety and tolerability [3]: safe and generally well tolerated

O=C(O)CC[C@H](NC(=O)N[C@@H](CCC(=O)N[C@@H](CCCCN(Cc1nccn1CC(=O)N(CC(=O)O)CC(=O)O)Cc1nccn1CC(=O)N(CC(=O)O)CC(=O)O)C(=O)O)C(=O)O)C(=O)O [MIP-1404]
washout from the kidneys without intervention (LNCaP; mouse, in vivo): fast washout

O=C(O)CC[C@H](NC(=O)N[C@@H](CCCCNC(=O)Nc1ccc(I)cc1)C(=O)O)C(=O)O [cold MIP-1095]
exposure in other organs (LNCaP xenografts; group 4 (0.15 mg/kg)): little changed
reduction of LNCaP tumors exposure compared to negative control (LNCaP xenografts; group 4 (0.15 mg/kg)): 1.2 fold
reduction of kidney exposure compared to negative control (LNCaP xenografts; group 4 (0.15 mg/kg)): 5 fold
125I-MIP-1095 kidney exposure (LNCaP xenografts; [5]): dose-dependently reduced
LNCaP tumors exposure (LNCaP xenografts; [5]): dose-dependent decrease
liver, stomach, large and small intestines exposure (LNCaP xenografts; [5]): dose-dependent increase
reduction in kidney exposure compared with positive control (LNCaP xenografts; highest dose (0.5 mg/kg)): equivalent to the one observed for positive control
